This note sets out measurements from US20030039697A1, “Matrices containing nitric oxide donors and reducing agents and their use” (priority 2002, published 2003).

The test system of this assay is E. coli. The format is cell-based.

With `N[C@@H](CCC(=O)N[C@@H](CSN=O)C(=O)NCC(=O)O)C(=O)O` [GSNO, S-nitroso-L-glutathione], the “growth of bacteria (E. coli) with coated catheter segments” value is “inhibits growth of bacteria”.
